Results as given in PMC8314276, “A Commercial Extract of Cyanotis arachnoidea Roots as a Source of Unusual Ecdysteroid Derivatives with Insect Hormone Receptor Binding Activity” (Journal of Natural Products, 2021).

Tests used:
[1] = target: T1, insect ecdysteroid receptor (EcR) (Spodoptera frugiperda, UniProt Q8MWR2); assay: EcR binding assay ([3H]PonA displacement in Sf-9 cells); conditions: Sf-9 cells
T1 construct: To an Sf-9 cell suspension (400 μL; (2.0–3.0) × 10^6 cells/mL) in a disposable culture tube; endogenous in cells; host or cells: Sf-9 cells
T1 sequence (Q8MWR2 1-403): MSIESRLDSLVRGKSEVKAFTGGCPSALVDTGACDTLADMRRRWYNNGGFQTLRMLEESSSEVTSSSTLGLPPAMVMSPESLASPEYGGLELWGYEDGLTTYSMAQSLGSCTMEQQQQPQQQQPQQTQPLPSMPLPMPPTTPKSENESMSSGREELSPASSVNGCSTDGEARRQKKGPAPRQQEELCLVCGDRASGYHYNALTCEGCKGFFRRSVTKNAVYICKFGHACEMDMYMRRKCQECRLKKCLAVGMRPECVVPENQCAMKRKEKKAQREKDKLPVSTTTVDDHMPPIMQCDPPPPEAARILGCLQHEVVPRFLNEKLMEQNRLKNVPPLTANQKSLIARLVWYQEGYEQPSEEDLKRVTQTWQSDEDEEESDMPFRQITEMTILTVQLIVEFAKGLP
Experimental: Tritiated PonA ([^3H]PonA; 3.5 TBq/mmol) was custom synthesized by American Radiolabeled Chemicals, Inc. (St. Louis, MO, USA). A stock solution of [^3H]PonA (30 000 dpm/μL, ∼0.1 μM) was prepared in 70% aqueous EtOH. Cold PonA and 20E were obtained from Enzo Biochem Inc. (New York, NY, USA) and Sigma-Aldrich Co. (St. Louis, MO, USA), respectively. Tebufenozide was obtained from stock samples. All test compounds were dissolved in DMSO. An Sf-9 cell line was cultured in EX-CELL 420 medium (SAFC Biosciences, Inc., Lenexa, KS, USA) supplemented with 10% fetal bovine serum.
The binding assay was performed as described previously with some modifications.[43],[44] To an Sf-9 cell suspension (400 μL; (2.0–3.0) × 10^6 cells/mL) in a disposable culture tube (12 mm × 75 mm) was added a test compound solution (1 μL), followed by a [^3H]PonA solution (2 μL, 60 000 dpm). After incubation at 25 °C for 30 min, the cell suspension was diluted with water (3 mL) and filtered through a glass fiber filter GF/B (25 mm; Whatman plc, Maidstone, UK). The filter was washed with water (2 × 3 mL), dried, and transferred to a glass vial. To the vial were added 3 mL of Insta-Gel Plus (PerkinElmer Inc., Waltham, MA, USA), and the radioactivity was measured with an LSC-8000 counter (Aloka, Tokyo, Japan). DMSO and PonA (final concentration: 2.7 μM) were used to determine the total and nonspecific binding, respectively. The test compounds were first screened at 25 μM, and the compounds with an inhibition rate of ≥50% were subjected to concentration–response experiments. The 50% inhibition concentration for [^3H]PonA binding [IC50 (M)] was determined using probit analysis,[45] and the logarithm of its reciprocal, pIC50, was used as the index of the binding affinity.

[2] = target: T2, EcR (Spodoptera frugiperda, UniProt Q8MWR2); assay: Reporter gene assay (hsp27 ecdysone response element/firefly luciferase) in Sf-9 cells; format: cell-based, insect; conditions: Sf-9 cells, luciferase reporter
T2 sequence (Q8MWR2 1-403): T1 sequence (Q8MWR2 1-403)
Experimental: The reporter gene assay was performed in Sf-9 cells according to a previously reported method.[46] Briefly, a reporter plasmid was constructed from pBmbA/hsp27/firefly luciferase (hsp27/Fluc), in which seven repeats of hsp27 ecdysone response element were inserted. This plasmid was a kind gift from Dr. Luc Swevers (Institute of Biosciences & Applications, National Center for Scientific Research “Demokritos”, Athens, Greece). The plasmid was amplified in Escherichia coli and purified using a QIAGEN plasmid midi kit (QIAGEN GmbH, Hilden, Germany). A cell suspension (approximately 2.0 × 10^6 cells/mL; 400 μL) was added to each well of a 24-well plate, and it was incubated for 1 h. Then, 200 μL of a mixture of plasmids and TransFast transfection reagent (Promega; Madison, WI, USA) was added to each well. After incubating for 24 h, 6 μL of a solution of test compound (1% v/v) was added and incubated. After 48 h, the medium in each well was removed with a pipet. Cells were lysed by adding 100 μL/well of Passive Lysis Buffer and incubating for 15 min at 25 °C. The lysate (20 μL) was transferred to a 96-well microplate for the luciferase assay. Chemical luminescence was measured using a 96-microplate GLOMAX luminometer (Promega), according to the manufacturer’s instructions.

Compound: CC(C)CCC(=O)[C@](C)(O)[C@H]1CC[C@@]2(O)C3=CC(=O)[C@@H]4C[C@@H](O)[C@@H](O)C[C@]4(C)C3=CC[C@]12C [Compound 6, 22-Oxodacryhainansterone]
- IC50 ([1]; IC50, EcR binding, inhibition of [3H]PonA binding): 380 nM
- EcR binding activity in words ([1]; [3H]PonA binding): moderate
- agonistic activity in reporter gene assay at 0.1 μM ([2]; 0.1 μM): did not show agonistic activity
- agonistic activity in reporter gene assay at 1 μM ([2]; 1 μM): agonists
